Data as given in US10597388B2, “Pyridazinone herbicides” (FMC CORPORATION, priority 2014, dated 2020).

Key:
Assay type in all cases: in vivo
[1] = tested on: ducksalad (Heteranthera limosa); assay: Test B flooded paddy test; conditions: 250 g ai/ha, Flood; visual rating on scale of 0 to 100 where 0 is no effect and 100 is complete control; 13 to 15 d after treatment
Summary of the method: (§1)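 Plants grown to the 2-leaf stage. At treatment, pots were flooded to 3 cm above the soil, compound was applied directly to the paddy water, and that depth was held throughout. After 13 to 15 d in the greenhouse, response was rated visually against controls on a 0 (no effect) to 100 (complete control) scale.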

[2] = tested on: barnyardgrass (Echinochloa crus-galli); assay: Test B flooded paddy test; conditions: 250 g ai/ha, Flood; visual rating on scale of 0 to 100 where 0 is no effect and 100 is complete control; 13 to 15 d after treatment
Summary of the method: as §1

[3] = tested on: sedge, umbrella (small-flower umbrella sedge, Cyperus difformis); assay: Test B flooded paddy test; conditions: 250 g ai/ha, Flood; visual rating on scale of 0 to 100 where 0 is no effect and 100 is complete control; 13 to 15 d after treatment
Summary of the method: as §1

rice (Oryza sativa) = assay: Test B flooded paddy test; conditions: 250 g ai/ha, Flood; visual rating on scale of 0 to 100 where 0 is no effect and 100 is complete control; 13 to 15 d after treatment
Summary of the method: as §1

[4] = tested on: barnyardgrass (Echinochloa crus-galli); assay: Test A greenhouse herbicide test, pre- and postemergence
Summary of the method: (§2)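 Seeds in loam–sand blend received a preemergence directed soil spray; plants at 2–10 cm, one- to two-leaf stage, received postemergence sprays. Compounds in a non-phytotoxic solvent with surfactant. After about 10 d in a greenhouse, injury rated visually versus untreated controls on a 0–100 scale (100 = complete control).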

corn (Zea mays) = assay: as above; conditions: Postemergence; for Plant response rating, Corn: 125 g ai/ha, 0 to 100 scale where 0 is no effect and 100 is complete control; for Corn plant response rating: 500 g ai/ha, 0 to 100 scale, 0 is no effect, 100 is complete control
Summary of the method: as §2

[5] = tested on: foxtail, giant (giant foxtail, Setaria faberii); assay: as above
Summary of the method: as §2

[6] = tested on: ragweed (common ragweed, Ambrosia elatior); assay: as above
Summary of the method: as §2

kochia (Kochia scoparia) [7] = assay: as above
Summary of the method: as §2

[8] = tested on: oat, wild (wild oat, Avena fatua); assay: Test C greenhouse herbicide test, postemergence
Summary of the method: (§3)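 Postemergence foliar treatment, 1- to 4-leaf stage (2–18 cm), peat/vermiculite medium; greenhouse 13–15 d; visual rating vs controls, 0 = no effect, 100 = complete control; dash = no result.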

kochia (Kochia scoparia) [9] = assay: Test C greenhouse herbicide test, postemergence
Summary of the method: as §3

[10] = tested on: chickweed (common chickweed, Stellaria media); assay: Test C greenhouse herbicide test, postemergence
Summary of the method: as §3

[11] = Postemergence, 125 g ai/ha, 0 to 100 scale where 0 is no effect and 100 is complete control
[12] = Postemergence, 500 g ai/ha, 0 to 100 scale, 0 is no effect, 100 is complete control
[13] = Preemergence, 125 g ai/ha, 0 to 100 scale where 0 is no effect and 100 is complete control
[14] = Preemergence, 500 g ai/ha, 0 to 100 scale, 0 no effect, 100 complete control
[15] = Postemergence, 31 g ai/ha, 0 to 100 scale (0 no effect, 100 complete control)
[16] = Postemergence, 125 g ai/ha, scale 0 to 100, 0 is no effect, 100 is complete control
[17] = Postemergence, 250 g ai/ha, scale 0 to 100, 0 no effect, 100 complete control, 13 to 15 d
[18] = postemergence, 62 g ai/ha, scale 0 to 100, 0 no effect, 100 complete control
[19] = Preemergence, 500 g ai/ha, 0 to 100 scale where 0 is no effect and 100 is complete control

Row | Compound | Plant response rating, Ducksalad [1] | Plant response rating, Barnyardgrass [2] | Plant response rating, Sedge, Umbrella [3] | Plant response rating, Rice (rice (Oryza sativa)) | Plant response rating, Barnyardgrass [4, 11] | Barnyardgrass plant response rating [4, 12] | Barnyardgrass plant response rating [4, 13] | Plant response rating, Barnyardgrass [4, 14] | Plant response rating, Corn (corn (Zea mays)) | Corn plant response rating (corn (Zea mays)) | Plant response rating, Foxtail, Giant [5, 11] | Foxtail, Giant plant response rating [5, 12] | Foxtail, Giant plant response rating [5, 13] | Plant response rating, Ragweed [6, 11] | Ragweed plant response rating [6, 12] | Ragweed plant response rating [6, 13] | Plant response rating, Kochia (kochia (Kochia scoparia) [7]; [11]) | Kochia plant response rating (kochia (Kochia scoparia) [7]; [12]) | Kochia plant response rating (kochia (Kochia scoparia) [7]; [13]) | Oat, Wild plant response rating [8, 15] | also measured
1 | CCc1sc2c(C)cc(C)cc2c1-c1c(O)c(C)nn(C)c1=O [Compound 57] | 0 | 0 | 0 | 0 | 90 | 100 | 100 | 100 | 20 | 30 | 80 | 90 | 100 | 100 | 100 | 90 | 80 | 100 | 100 | 20 | Plant response rating, Foxtail, Giant [5, 14]: 100; Plant response rating, Ragweed [6, 14]: 100; Plant response rating, Kochia (kochia (Kochia scoparia) [7]; [14]): 100; Plant response rating, Oat, Wild [8, 16]: 45; Plant response rating, Oat, Wild [8, 17]: 60; Oat, Wild plant response rating [8, 18]: 35; Kochia plant response rating (kochia (Kochia scoparia) [9]; [15]): 50; Plant response rating, Kochia (kochia (Kochia scoparia) [9]; [16]): 70; Plant response rating, Kochia (kochia (Kochia scoparia) [9]; [17]): 95; Kochia plant response rating (kochia (Kochia scoparia) [9]; [18]): 65; Chickweed plant response rating [10, 15]: 90; Plant response rating, Chickweed [10, 16]: 95; Plant response rating, Chickweed [10, 17]: 100; Chickweed plant response rating [10, 18]: 95
2 | Cc1ccc2sc(C)c(-c3c(OC(=O)OC(C)C)c(C)nn(C)c3=O)c2c1 [Compound 66] | 0 | 0 | 0 | 0 | 20 | 90 | 20 | 70 | 0 | 0 | 70 | 90 | 60 | 70 | 90 | 80 | 90 | 90 | 60 | 55 | Plant response rating, Foxtail, Giant [5, 14]: 90; Plant response rating, Ragweed [6, 14]: 90; Plant response rating, Kochia (kochia (Kochia scoparia) [7]; [14]): 70; Plant response rating, Oat, Wild [8, 16]: 90; Plant response rating, Oat, Wild [8, 17]: 90; Oat, Wild plant response rating [8, 18]: 80; Kochia plant response rating (kochia (Kochia scoparia) [9]; [15]): 90; Plant response rating, Kochia (kochia (Kochia scoparia) [9]; [16]): 90; Plant response rating, Kochia (kochia (Kochia scoparia) [9]; [17]): 98; Kochia plant response rating (kochia (Kochia scoparia) [9]; [18]): 90; Chickweed plant response rating [10, 15]: 90; Plant response rating, Chickweed [10, 16]: 95; Plant response rating, Chickweed [10, 17]: 95; Chickweed plant response rating [10, 18]: 95
3 | Cc1ccc2ccccc2c1-c1c(OC(=O)OC(C)C)c(C)nn(C)c1=O [Compound 72] | 0 | 0 | 0 | 0 | 20 | 60 | 10 | 100 | 20 | 40 | 30 | 90 | 70 | 70 | 90 | 90 | 60 | 90 | 50 | 85 | Plant response rating, Foxtail, Giant [5, 19]: 100; Plant response rating, Ragweed [6, 19]: 90; Plant response rating, Kochia (kochia (Kochia scoparia) [7]; [19]): 100; Plant response rating, Oat, Wild [8, 16]: 90; Plant response rating, Oat, Wild [8, 17]: 95; Oat, Wild plant response rating [8, 18]: 95; Kochia plant response rating (kochia (Kochia scoparia) [9]; [15]): 60; Plant response rating, Kochia (kochia (Kochia scoparia) [9]; [16]): 90; Plant response rating, Kochia (kochia (Kochia scoparia) [9]; [17]): 90; Kochia plant response rating (kochia (Kochia scoparia) [9]; [18]): 85; Chickweed plant response rating [10, 15]: 90; Plant response rating, Chickweed [10, 16]: 90; Plant response rating, Chickweed [10, 17]: 90; Chickweed plant response rating [10, 18]: 90
4 | Cc1nn(C)c(=O)c(-c2ccc(Br)c3ccccc23)c1O [Compound 75] | 0 | 0 | 0 | 15 | 0 | 60 | 40 | 80 | 0 | 20 | 50 | 50 | 50 | 60 | 90 | 70 | 80 | 90 | 80 | 40 | Plant response rating, Foxtail, Giant [5, 19]: 90; Plant response rating, Ragweed [6, 19]: 90; Plant response rating, Kochia (kochia (Kochia scoparia) [7]; [19]): 90; Plant response rating, Oat, Wild [8, 16]: 40; Plant response rating, Oat, Wild [8, 17]: 35; Oat, Wild plant response rating [8, 18]: 35; Kochia plant response rating (kochia (Kochia scoparia) [9]; [15]): 90; Plant response rating, Kochia (kochia (Kochia scoparia) [9]; [16]): 95; Plant response rating, Kochia (kochia (Kochia scoparia) [9]; [17]): 95; Kochia plant response rating (kochia (Kochia scoparia) [9]; [18]): 85; Chickweed plant response rating [10, 15]: 95; Plant response rating, Chickweed [10, 16]: 95; Plant response rating, Chickweed [10, 17]: 95; Chickweed plant response rating [10, 18]: 90
